# Measurements reported in patent publication US11414488B2, “Methods for treating cancer” (BicycleRD Limited, priority 2019, dated 2022).
# Where two headings read alike, the source gives them in different places.
# Columns and labels:
# [1] = Tolerability and deaths in E0771 study (Example 3); assay type: in vivo, Mouse; details: single agent paclitaxel 15 mg/kg; considered non-specific deaths, treatment not completely ruled out
# From the text: Animals euthanized during the same period for other causes (sampling, accidental trauma, etc.) are excluded from this calculation. […] (Group toxicity parameter)
# [2] = tested on: orthotopic E0771 murine mammary carcinoma; details: for anti-tumor activity (in words): BT17BDC-18 at 6.2 mg/kg or 4.8 mg/kg, anti-mPD-1 10 mg/kg, paclitaxel 15 mg/kg
# From the text: The purpose of this study was to evaluate the anti-cancer activity of BT17BDC-18 alone and in combination with anti-mPD-1 against established orthotopic E0771 murine mammary carcinoma in female C57BL/6 mice.
# All mice were sorted into study groups based on caliper estimation of tumor burden. The mice were distributed to ensure that the mean tumor burden for all groups was within 10% of the overall mean tumor burden for the study population.
# All animals weighed at least 16.6 g at the initiation of therapy. […] A tumor burden of 2000 mm^3, was chosen for evaluation of efficacy by time to progression (time to euthanasia/death).
# Treatment-related weight change—This is a group endpoint calculated from the group mean body weights. It is calculated differently for specific circumstances as follows: • If (at any point between the first day of treatment and two weeks after the final treatment) the mean group body weight decreases by more than 2%, the maximum weight loss is reported, even if body weight eventually rebounded during treatment to a net weight gain. […] To assess the contribution of test agents to weight loss, Net Treatment Related Weight Loss may be used. […] When this occurs, net weight loss is calculated by normalizing for tumor burden. We do this by constructing a plot of control group mean tumor burden vs control group mean weight loss, using all of the weight data available for the control group. […] This value is then subtracted from the mean weight loss in the treated group to generate the net weight loss for the treated group on that day. The calculated net weight loss is then used to estimate the tolerance to the drug.
# Time to Progression (TP)—Time to progression is a surrogate for lifespan, time on study, or lifespan. It is used for studies that involve IACUC mandated euthanasia of animals for excessive tumor burdens (even if the animals otherwise appear normal). The mandated tumor burden limit is tumor model dependent. TP data is analyzed by Kaplan Meier methods just as traditional life span data. The Time to Progression for an individual animal is the number of days between initiation of treatment and the death or required euthanasia of that animal. […] This puts all animals on the same footing, and removes the impact of possibly delayed euthanasia (which may occur for sampling, or weekends and holidays). Animals euthanized for scheduled sampling or other causes unrelated to disease progression or therapy are excluded from this calculation. The median Time to Progression for a group is used to calculate the % Increase in Time to Progression (% ITP).
# % Increase in Time to Progression (% ITP)—% ITP is a group endpoint.
# Complete Regression (CR)—An animal is credited a complete regression if its tumor burden is reduced to an immeasurable volume at any point after the first treatment. Our convention is to record any tumor measurement less than 5 mm as a “0.” The CR must be maintained for at least 2 consecutive measurements. This is in keeping with the convention of the NCI and reflects the inherent and unacceptably high mechanical error in such measurements in addition to the uncertain biology of what is measured at those small sizes.
# [3] = BT17BDC-18 6.2 mg/kg IV Q7Dx4, anti-mPD-1 10 mg/kg IP, paclitaxel 15 mg/kg IV Q7Dx4, alone or combined
smiles,measurement,setting,value
CC(=O)O[C@H]1C(=O)[C@@]2(C)[C@H]([C@H](OC(=O)c3ccccc3)[C@]3(O)C[C@H](OC(=O)[C@H](O)[C@@H](NC(=O)c4ccccc4)c4ccccc4)C(C)=C1C3(C)C)[C@]1(OC(C)=O)CO[C@@H]1C[C@@H]2O [Paclitaxel],deaths in group,[1],two
same,% increase in time to progression,[2]; [3],17.9%
same,Day 36 median ΔT/ΔC,[2]; [3],94%
same,increase in time to progression,[2]; [3],4.0 days
same,anti-tumor activity (in words),[2],Poor response
same,anti-tumor activity (in words),[2]; listed as paclitaxel,mildly active
